Experimental data: article PMC10763615, “Identification and engineering of potent cyclic peptides with selective or promiscuous binding through biochemical profiling and bioinformatic data analysis” (RSC Chemical Biology, 2023)
Where two headings read alike, the source gives them in different places. Positions of bridges follow the written chain, without caps; N, C: chain ends. Residues, ends and D or L forms follow the SMILES beside them.

Key:
Assay type in all cases: binding
FGF-R4 ECD = biological target: T1, FGF-R4 ECD (Homo sapiens, UniProt P22455); experiment: single concentration BLI of crude peptides; settings: read-out: KD (4)
T1 construct: DNA constructs for the extracellular domain (ECD) of human FGF-; HPC4 (C); made in house; host or cells: HEK 293-6E
T1 sequence (P22455 22-369 limits assumed): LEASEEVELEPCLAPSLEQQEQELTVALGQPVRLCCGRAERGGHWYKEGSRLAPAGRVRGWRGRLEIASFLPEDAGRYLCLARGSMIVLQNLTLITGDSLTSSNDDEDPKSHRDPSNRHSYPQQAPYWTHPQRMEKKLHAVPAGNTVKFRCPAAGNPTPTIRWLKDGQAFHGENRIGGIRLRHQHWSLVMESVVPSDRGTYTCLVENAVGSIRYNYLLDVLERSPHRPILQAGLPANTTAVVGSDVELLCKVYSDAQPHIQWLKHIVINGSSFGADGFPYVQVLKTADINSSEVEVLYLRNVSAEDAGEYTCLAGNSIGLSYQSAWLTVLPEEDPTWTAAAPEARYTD
Method in brief: (§1)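 Streptavidin biosensors carrying biotinylated FGF receptor ECD were immersed in peptide (~1 μM for crude single-point runs, a concentration series for purified peptides) and then in peptide-free buffer. KD was obtained by fitting the BLI association and dissociation curves.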

FGF-R1C ECD = biological target: T2, FGF-R1C ECD (Homo sapiens, UniProt P11362); experiment: biochemical; set-up: DNA constructs for the extracellular domain (ECD) of human FGF-; HPC4 (C); made in house; host or cells: HEK 293-6E
T2 sequence (P11362 22-376 limits assumed): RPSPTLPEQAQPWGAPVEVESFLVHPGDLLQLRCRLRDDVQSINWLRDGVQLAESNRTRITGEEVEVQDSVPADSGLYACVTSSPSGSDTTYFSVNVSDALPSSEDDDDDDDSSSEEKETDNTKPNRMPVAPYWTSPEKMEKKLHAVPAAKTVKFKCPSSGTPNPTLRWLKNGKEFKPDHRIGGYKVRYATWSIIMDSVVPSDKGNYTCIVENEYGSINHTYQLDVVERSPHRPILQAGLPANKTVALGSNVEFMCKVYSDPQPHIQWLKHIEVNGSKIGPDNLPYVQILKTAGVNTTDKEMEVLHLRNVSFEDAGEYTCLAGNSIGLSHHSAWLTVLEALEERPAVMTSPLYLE
Method in brief: as §1

FGF-R3C ECD = biological target: T3, FGF-R3C ECD (Homo sapiens, UniProt P22607); experiment: biochemical; set-up: DNA constructs for the extracellular domain (ECD) of human FGF-; HPC4 (C); made in house; host or cells: HEK 293-6E
T3 sequence (P22607 23-375 limits assumed): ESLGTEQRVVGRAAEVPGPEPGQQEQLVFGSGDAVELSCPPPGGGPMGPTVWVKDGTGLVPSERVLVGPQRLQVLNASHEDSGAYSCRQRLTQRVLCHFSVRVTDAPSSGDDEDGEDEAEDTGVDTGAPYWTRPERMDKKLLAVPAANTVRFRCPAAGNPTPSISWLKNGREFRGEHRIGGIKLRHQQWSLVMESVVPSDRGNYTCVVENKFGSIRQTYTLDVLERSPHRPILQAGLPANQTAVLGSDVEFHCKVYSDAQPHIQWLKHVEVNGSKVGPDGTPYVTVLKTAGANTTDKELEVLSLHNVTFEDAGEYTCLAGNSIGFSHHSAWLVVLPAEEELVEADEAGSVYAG
Method in brief: as §1

[1] = crude T18 selection 1 (1:1:1) peptides, single concentration BLI (Table S4)

For `CC[C@H](C)[C@@H]1NC(=O)[C@@H](NC(=O)[C@H](CCSC)NC(C)=O)CSSC[C@@H](C(=O)NCC(=O)N[C@@H](CO)C(=O)NCC(=O)N[C@@H](CO)C(=O)N[C@@H](CC(=O)O)C(=O)N[C@@H](Cc2ccc(O)cc2)C(=O)N[C@@H](CCCCN)C(=O)N[C@@H](CC(=O)O)C(=O)N[C@@H](CC(=O)O)C(=O)N[C@@H](CC(=O)O)C(=O)N[C@@H](CC(=O)O)C(=O)N[C@@H](CCCCN)C(N)=O)NC(=O)[C@H](CC(C)C)NC(=O)[C@H](CC(C)C)NC(=O)[C@H](Cc2ccc(O)cc2)NC(=O)[C@H](Cc2ccc(O)cc2)NC(=O)[C@H](Cc2ccccc2)NC(=O)[C@H](CC(C)C)NC(=O)[C@H](Cc2c[nH]cn2)NC(=O)[C@H](CC(C)C)NC(=O)[C@H](CC(=O)O)NC(=O)[C@H](CCCCN)NC1=O` (Ac-MCIKDLHLFYYLLCGSGSDYKDDDDK-NH2; disulfide 2-14), the Kd (FGF-R4 ECD; [1]) was 0.014 µM, the Kd (FGF-R1C ECD) was 0.03 µM and the Kd (FGF-R3C ECD) was > 10 µM.
In the case of `CSCC[C@H](NC(C)=O)C(=O)N[C@H]1CSSC[C@@H](C(=O)NCC(=O)N[C@@H](CO)C(=O)NCC(=O)N[C@@H](CO)C(=O)N[C@@H](CC(=O)O)C(=O)N[C@@H](Cc2ccc(O)cc2)C(=O)N[C@@H](CCCCN)C(=O)N[C@@H](CC(=O)O)C(=O)N[C@@H](CC(=O)O)C(=O)N[C@@H](CC(=O)O)C(=O)N[C@@H](CC(=O)O)C(=O)N[C@@H](CCCCN)C(N)=O)NC(=O)[C@H](Cc2c[nH]cn2)NC(=O)[C@H](Cc2c[nH]c3ccccc23)NC(=O)[C@H](Cc2ccc(O)cc2)NC(=O)[C@@H]2CCCN2C(=O)[C@H](CCC(=O)O)NC(=O)[C@H](Cc2ccc(O)cc2)NC(=O)[C@H](CC(C)C)NC(=O)[C@H](Cc2c[nH]cn2)NC(=O)[C@H](CCCNC(=N)N)NC(=O)[C@H](CC(C)C)NC1=O` (Ac-MCLRHLYEPYWHCGSGSDYKDDDDK-NH2; disulfide 2-13), the Kd (FGF-R4 ECD; [1]) is reported as > 10 µM, the Kd (FGF-R1C ECD) is reported as > 10 µM and the Kd (FGF-R3C ECD) is reported as > 10 µM.
In the case of `CSCC[C@H](NC(C)=O)C(=O)N[C@H]1CSSC[C@@H](C(=O)NCC(=O)N[C@@H](CO)C(=O)NCC(=O)N[C@@H](CO)C(=O)N[C@@H](CC(=O)O)C(=O)N[C@@H](Cc2ccc(O)cc2)C(=O)N[C@@H](CCCCN)C(=O)N[C@@H](CC(=O)O)C(=O)N[C@@H](CC(=O)O)C(=O)N[C@@H](CC(=O)O)C(=O)N[C@@H](CC(=O)O)C(=O)N[C@@H](CCCCN)C(N)=O)NC(=O)[C@H](CCC(N)=O)NC(=O)[C@H](Cc2c[nH]cn2)NC(=O)[C@H](Cc2c[nH]c3ccccc23)NC(=O)[C@H](CC(C)C)NC(=O)[C@H](C)NC(=O)[C@H](CCC(=O)O)NC(=O)[C@H](Cc2ccc(O)cc2)NC(=O)[C@@H]2CCCN2C(=O)[C@H](Cc2c[nH]cn2)NC(=O)[C@H](CCCNC(=N)N)NC(=O)[C@H]([C@@H](C)O)NC(=O)[C@H](Cc2ccc(O)cc2)NC1=O` (Ac-MCYTRHPYEALWHQCGSGSDYKDDDDK-NH2; disulfide 2-15), the Kd (FGF-R4 ECD; [1]) is reported as > 10 µM, the Kd (FGF-R1C ECD) is reported as > 10 µM and the Kd (FGF-R3C ECD) is reported as > 10 µM.
`CSCC[C@H](NC(C)=O)C(=O)N[C@H]1CSSC[C@@H](C(=O)NCC(=O)N[C@@H](CO)C(=O)NCC(=O)N[C@@H](CO)C(=O)N[C@@H](CC(=O)O)C(=O)N[C@@H](Cc2ccc(O)cc2)C(=O)N[C@@H](CCCCN)C(=O)N[C@@H](CC(=O)O)C(=O)N[C@@H](CC(=O)O)C(=O)N[C@@H](CC(=O)O)C(=O)N[C@@H](CC(=O)O)C(=O)N[C@@H](CCCCN)C(N)=O)NC(=O)[C@H](Cc2c[nH]cn2)NC(=O)[C@H](Cc2c[nH]cn2)NC(=O)[C@H](Cc2ccccc2)NC(=O)[C@H](CC(C)C)NC(=O)[C@H](CC(C)C)NC(=O)[C@H](Cc2ccc(O)cc2)NC(=O)[C@H](Cc2ccc(O)cc2)NC(=O)[C@H](Cc2ccccc2)NC(=O)[C@H](CC(C)C)NC(=O)[C@H](CC(=O)O)NC(=O)[C@H](CCC(=O)O)NC1=O` (Ac-MCEDLFYYLLFHHCGSGSDYKDDDDK-NH2; disulfide 2-14) was tested, and the Kd (FGF-R4 ECD; [1]) was 0.081 µM, the Kd (FGF-R1C ECD) was 4.54 µM and the Kd (FGF-R3C ECD) was > 10 µM.
For `CSCC[C@H](NC(C)=O)C(=O)N[C@H]1CSSC[C@@H](C(=O)NCC(=O)N[C@@H](CO)C(=O)NCC(=O)N[C@@H](CO)C(=O)N[C@@H](CC(=O)O)C(=O)N[C@@H](Cc2ccc(O)cc2)C(=O)N[C@@H](CCCCN)C(=O)N[C@@H](CC(=O)O)C(=O)N[C@@H](CC(=O)O)C(=O)N[C@@H](CC(=O)O)C(=O)N[C@@H](CC(=O)O)C(=O)N[C@@H](CCCCN)C(N)=O)NC(=O)[C@H](CCCCN)NC(=O)[C@H](CCCNC(=N)N)NC(=O)[C@H](Cc2c[nH]cn2)NC(=O)[C@H](C(C)C)NC(=O)[C@H](CC(C)C)NC(=O)[C@H](CCC(N)=O)NC(=O)[C@H](Cc2ccc(O)cc2)NC(=O)[C@H](Cc2ccc(O)cc2)NC(=O)[C@H](CCCCN)NC(=O)[C@H](C(C)C)NC(=O)[C@H](Cc2c[nH]c3ccccc23)NC(=O)[C@H](CCCNC(=N)N)NC1=O` (Ac-MCRWVKYYQLVHRKCGSGSDYKDDDDK-NH2; disulfide 2-15), the Kd (FGF-R4 ECD; [1]) was 0.001 µM, the Kd (FGF-R1C ECD) was > 10 µM and the Kd (FGF-R3C ECD) was > 10 µM.
`CC[C@H](C)[C@@H]1NC(=O)[C@H](C)NC(=O)[C@H](Cc2ccc(O)cc2)NC(=O)[C@@H]2CCCN2C(=O)[C@@H](NC(=O)[C@H](CCSC)NC(C)=O)CSSC[C@@H](C(=O)NCC(=O)N[C@@H](CO)C(=O)NCC(=O)N[C@@H](CO)C(=O)N[C@@H](CCC(=O)O)C(=O)N[C@@H](CCC(=O)O)C(=O)NCC(=O)N[C@@H](CO)C(=O)NCC(=O)N[C@@H](CO)C(=O)N[C@@H](CC(=O)O)C(=O)N[C@@H](Cc2ccc(O)cc2)C(=O)N[C@@H](CCCCN)C(=O)N[C@@H](CC(=O)O)C(=O)N[C@@H](CC(=O)O)C(=O)N[C@@H](CC(=O)O)C(=O)N[C@@H](CC(=O)O)C(=O)N[C@@H](CCCCN)C(N)=O)NC(=O)[C@H]([C@@H](C)O)NC(=O)[C@H](CCCCN)NC(=O)[C@H](CCCNC(=N)N)NC(=O)[C@H](Cc2c[nH]c3ccccc23)NC(=O)[C@H](CCCCN)NC(=O)[C@H](Cc2ccc(O)cc2)NC(=O)[C@H](Cc2c[nH]c3ccccc23)NC(=O)[C@H](Cc2ccc(O)cc2)NC1=O` (Ac-MCPYAIYWYKWRKTCGSGSEEGSGSDYKDDDDK-NH2; disulfide 2-15) was tested, and the Kd (FGF-R4 ECD; [1]) was 0.011 µM, the Kd (FGF-R1C ECD) was > 10 µM and the Kd (FGF-R3C ECD) was > 10 µM.
For `CC[C@H](C)[C@@H]1NC(=O)[C@H](CCC(=O)O)NC(=O)[C@H](CCCNC(=N)N)NC(=O)[C@H](CCCCN)NC(=O)[C@@H](NC(=O)[C@H](CCSC)NC(C)=O)CSSC[C@@H](C(=O)NCC(=O)N[C@@H](CO)C(=O)NCC(=O)N[C@@H](CO)C(=O)N[C@@H](CC(=O)O)C(=O)N[C@@H](Cc2ccc(O)cc2)C(=O)N[C@@H](CCCCN)C(=O)N[C@@H](CC(=O)O)C(=O)N[C@@H](CC(=O)O)C(=O)N[C@@H](CC(=O)O)C(=O)N[C@@H](CC(=O)O)C(=O)N[C@@H](CCCCN)C(N)=O)NC(=O)[C@H](Cc2ccccc2)NC(=O)[C@H](C(C)C)NC(=O)[C@H](CC(C)C)NC(=O)[C@H](Cc2c[nH]c3ccccc23)NC(=O)[C@H](Cc2ccc(O)cc2)NC(=O)[C@H](CCCCN)NC1=O` (Ac-MCKREIKYWLVFCGSGSDYKDDDDK-NH2; disulfide 2-13), the Kd (FGF-R4 ECD; [1]) was 0.008 µM, the Kd (FGF-R1C ECD) was > 10 µM and the Kd (FGF-R3C ECD) was > 10 µM.
With `CSCC[C@H](N)C(=O)N[C@H]1CSSC[C@@H](C(=O)NCC(=O)N[C@@H](CO)C(=O)NCC(=O)N[C@@H](CO)C(=O)N[C@@H](CC(=O)O)C(=O)N[C@@H](Cc2ccc(O)cc2)C(=O)N[C@@H](CCCCN)C(=O)N[C@@H](CC(=O)O)C(=O)N[C@@H](CC(=O)O)C(=O)N[C@@H](CC(=O)O)C(=O)N[C@@H](CC(=O)O)C(=O)N[C@@H](CCCCN)C(N)=O)NC(=O)[C@H](CC(C)C)NC(=O)[C@H](C(C)C)NC(=O)[C@H](Cc2ccccc2)NC(=O)[C@@H]2CCCN2C(=O)[C@H](CC(C)C)NC(=O)[C@H](Cc2ccccc2)NC(=O)[C@H](CO)NC(=O)[C@H](CC(=O)O)NC(=O)[C@H](Cc2ccccc2)NC(=O)[C@H](C(C)C)NC1=O` (H-MCVFDSFLPFVLCGSGSDYKDDDDK-NH2; disulfide 2-13) the Kd (FGF-R4 ECD; crude NNK peptides, single concentration BLI (Table S3)) was > 10 µM, the Kd (FGF-R1C ECD) was > 10 µM and the Kd (FGF-R3C ECD) was 0.06 µM.
